Measured values: US5750504A, “Antimicrobial proteins” (Zeneca Agrochemicals, priority 1996, dated 1998)

How the values were obtained:
Experiment in all cases: Antibacterial activity assay (microspectrophotometry)
Type in all cases: cell-based
Details in all cases: tested at 200 μg/ml
[1] = system: Proteus vulgaris JHCC 558711
Description: (§1) Antibacterial activity was measured microspectrophotometrically as follows. A bacterial suspension was prepared by inoculating soft nutrient agarose (tryptone, 10 g/l; Seaplaque agarose (FMC), 5 g/l). Aliquots (80 μl) of the bacterial suspension (10^5 colony forming units per ml) were added to filter-sterilized samples (20 μl) in flat-bottom 96-well microplates. The absorbance at 595 nm of the culture was measured with the aid of a microplate reader after 30 minutes and 24 hours of incubation at 28° C. Percent growth inhibition was calculated as described above for the antifungal activity assay.
(§2) The antibacterial activities of Ah-AMP1 and Hs-AFP1 were measured on four gram positive bacteria (Bacillus subtilis JHCC 553331; Micrococcus luteus ATCC 93411; Staphylococcus aureus ATCC 25923; Streptococcus feacolis ATCC 29212) and two gram negative bacteria (Eschericia coli HB101 and Proteus vulgaris JHCC 558711).

[2] = system: Micrococcus luteus ATCC 93411
Description: as §1, §2

[3] = system: Streptococcus feacolis ATCC 29212
Description: as §1, §2

[4] = system: Staphylococcus aureus ATCC 25923
Description: as §1, §2

Eschericia coli HB101 = system: Eschericia coli HB101
Description: as §1, §2

Measured: inhibition of bacterial growth

Hs-AFP1: Heuchera sanquinea antifungal protein 1; 5 kDa polypeptide purified from seeds, 54 amino acids, SEQ ID NO 1 (DGVKLCDVPSGTWSGHCGSSSKCSQQCKDREHFAYGGACHYQFPSVKCFCKRQC)
did not inhibit the growth: all assays above
